# From paper PMC4301837, “Aldosterone synthase inhibition: cardiorenal protection in animal disease models and translation of hormonal effects to human subjects” (Journal of Translational Medicine, 2014)
# Where two headings read alike, the source gives them in different places. Marks after values point to notes of the source that are not given here.
# How the values were obtained:
# in vitro [1] = conditions: rat, plasma
# [2] = test system: Ang-II-stimulated aldosterone synthesis; experiment: animal or person; conditions: Rattus norvegicus, po, read-out: ED50 for inhibiting Ang-II-stimulated aldosterone response
# [3] = molecular target: aldosterone synthase (CYP11B2), rat adrenal homogenate (Rattus norvegicus, UniProt P30099); experiment: biochemical
# [4] = test system: Ang-II-stimulated aldosterone synthesis; conditions: rat, Ang II stimulation
# [5] = monkey, 15–150 μg/kg
# [6] = molecular target: aldosterone synthase (CYP11B2), monkey adrenal homogenate (Macaca fascicularis, UniProt A0A2K5UPL9); experiment: biochemical
# [7] = test system: patients with essential hypertension; conditions: cited from earlier work
# in vivo = conditions: male, cynomolgus monkey, plasma, po
# in vitro [8] = conditions: monkey, plasma
# [9] = test system: Ang II-stimulated aldosterone release; design: method as in D. Rigel, personal communication; conditions: dogs; ref D. Rigel, personal communication; read-out: EC50, inhibition of Ang II-stimulated aldosterone release; cited from earlier work
# [10] = test system: patients with primary aldosteronism; conditions: 14 patients, 0.5 mg and 1 mg twice daily, 4 weeks; cited from earlier work
# healthy male volunteers [11] = experiment: Human pharmacodynamics, multiple-dose phase; conditions: for Plasma potassium, Δ Day2 vs baseline (Day −1) / Plasma potassium, Δ Day7 vs baseline (Day −1) / Plasma potassium, Δ Day14 vs Day 7 / Plasma sodium, Δ Day2 vs baseline (Day −1) / Plasma sodium, Δ Day7 vs baseline (Day −1) / Plasma sodium, Δ Day14 vs Day 7 / Urinary potassium, Δ Day 1 vs baseline (Day −1) / Urinary potassium, Δ Day 7 vs baseline (Day −1) / Urinary potassium, Δ Day 14 vs Day 7 / Urinary sodium, Δ Day 1 vs baseline (Day −1) / Urinary sodium, Δ Day 7 vs baseline (Day −1) / Urinary sodium, Δ Day 14 vs Day 7: ANCOVA mean
# human CYP11B2 = test system: human CYP11B2; design: method as in PMID 24899257; conditions: recombinant hamster fibroblasts expressing human CYP11B1 and CYP11B2; read-out: IC50, inhibition of aldosterone synthesis; cited from earlier work
# [12] = test system: ACTH-stimulated plasma aldosterone and cortisol; experiment: animal or person; conditions: Macaca fascicularis
# [13] = molecular target: recombinant rat 11β-hydroxylase (CYP11B1) (Rattus norvegicus, UniProt P15393); experiment: biochemical
# ACTH-stimulated cortisol = conditions: rhesus monkeys, cited from earlier work
# [14] = test system: ACTH-stimulated aldosterone and corticosterone synthesis; experiment: animal or person; conditions: Rattus norvegicus; for ED50: po
# healthy male volunteers [15] = test system: healthy male volunteers
# [16] = rat, over the tested dose range
# [17] = test system: ACTH-stimulated aldosterone and corticosterone synthesis; conditions: rat, ACTH stimulation
# [18] = dogs, ref D. Rigel, personal communication, cited from earlier work
# [19] = test system: patients with Cushing’s disease; conditions: 12 patients, 2–50 mg twice daily, cited from earlier work
# [20] = approximately 2 h after oral dosing
# [21] = 524 patients, 0.25 to 1 mg, 8 weeks
# [22] = LCI699 0.5 mg, Day 1, mean ± SEM
# aldosterone synthase (CYP11B2), monkey adrenal homogenate, sequence (A0A2K5UPL9 1-503): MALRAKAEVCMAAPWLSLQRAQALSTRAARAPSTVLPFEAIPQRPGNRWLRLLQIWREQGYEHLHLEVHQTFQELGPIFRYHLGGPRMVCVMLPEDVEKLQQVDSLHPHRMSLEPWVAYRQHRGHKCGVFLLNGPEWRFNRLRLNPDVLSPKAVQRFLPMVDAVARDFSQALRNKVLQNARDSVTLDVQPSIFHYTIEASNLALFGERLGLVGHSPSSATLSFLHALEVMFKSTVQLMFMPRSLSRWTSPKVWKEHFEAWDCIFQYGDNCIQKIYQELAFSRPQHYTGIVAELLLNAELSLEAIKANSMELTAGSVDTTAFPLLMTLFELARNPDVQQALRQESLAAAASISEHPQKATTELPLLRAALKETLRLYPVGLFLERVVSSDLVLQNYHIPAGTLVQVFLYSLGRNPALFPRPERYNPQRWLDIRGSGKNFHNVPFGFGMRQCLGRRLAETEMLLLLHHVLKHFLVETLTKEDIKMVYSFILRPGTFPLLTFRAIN
# recombinant rat 11β-hydroxylase (CYP11B1), sequence (P15393 25-499): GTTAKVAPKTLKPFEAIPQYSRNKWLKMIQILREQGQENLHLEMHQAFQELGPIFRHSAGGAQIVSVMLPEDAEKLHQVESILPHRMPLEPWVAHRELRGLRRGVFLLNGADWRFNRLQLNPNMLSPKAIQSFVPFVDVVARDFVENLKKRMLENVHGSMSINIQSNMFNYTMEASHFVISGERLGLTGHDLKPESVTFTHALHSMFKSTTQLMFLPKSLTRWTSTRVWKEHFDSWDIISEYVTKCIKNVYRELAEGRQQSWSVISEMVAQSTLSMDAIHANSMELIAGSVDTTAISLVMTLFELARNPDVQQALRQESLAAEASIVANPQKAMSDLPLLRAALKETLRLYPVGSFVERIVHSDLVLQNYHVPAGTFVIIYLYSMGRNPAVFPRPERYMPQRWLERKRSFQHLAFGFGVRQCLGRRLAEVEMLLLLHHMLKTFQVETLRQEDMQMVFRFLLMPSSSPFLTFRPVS
# aldosterone synthase (CYP11B2), rat adrenal homogenate, sequence (P30099 35-510): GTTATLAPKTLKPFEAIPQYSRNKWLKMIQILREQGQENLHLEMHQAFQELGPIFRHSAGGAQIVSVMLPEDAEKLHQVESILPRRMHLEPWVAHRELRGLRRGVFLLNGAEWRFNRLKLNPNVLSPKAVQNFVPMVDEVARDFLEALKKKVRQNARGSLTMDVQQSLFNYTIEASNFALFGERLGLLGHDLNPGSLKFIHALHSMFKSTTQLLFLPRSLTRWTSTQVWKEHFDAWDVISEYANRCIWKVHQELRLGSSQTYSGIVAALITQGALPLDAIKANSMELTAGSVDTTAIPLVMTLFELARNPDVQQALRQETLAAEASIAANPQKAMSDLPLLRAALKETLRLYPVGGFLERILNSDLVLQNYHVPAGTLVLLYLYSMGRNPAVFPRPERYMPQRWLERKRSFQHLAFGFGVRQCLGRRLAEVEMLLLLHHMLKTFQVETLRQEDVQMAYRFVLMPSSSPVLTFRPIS
smiles,measurement,setting,value
N#Cc1ccc([C@H]2CCc3cncn32)c(F)c1 [LCI699],fraction unbound,in vitro [1],0.641
same,ED50,[2],0.6 mg/kg
same,IC50,[3],802 nM
same,dose above which inhibition of stimulated plasma aldosterone shows an apparent plateau,[4]; oral,above 1 mg/kg
same,Maximal reduction in plasma aldosterone from baseline,[4]; [20],80%
same,dose proportionality of pharmacokinetics,[5],dose-proportional
same,IC50,[6],12 ± 1 nM
same,hypertensive patients with attenuated ACTH-stimulated cortisol response,[7]; 1 mg once daily,approximately 20%
same,placebo-corrected reduction in ambulatory diastolic blood pressure,[7]; [21],3–6 mmHg
same,placebo-corrected reduction in ambulatory systolic blood pressure,[7]; [21],6–9 mmHg
same,subjects with suppressed ACTH-stimulated cortisol release,[7]; total daily dose of 1 mg,approximately 20%
same,Tmax,in vivo,0.9 to 3.5 h
same,half-life,in vivo,1 to 2 h
same,fraction unbound,in vitro [8],0.734
same,EC50,[9],41 nM
same,effect on plasma and urinary aldosterone levels,[10],effectively reduced
same,mean decrease in ambulatory systolic blood pressure,[10],4 mmHg
same,"Plasma potassium, Δ Day2 vs baseline (Day −1)",healthy male volunteers [11]; LCI699 0.5 mg once daily,+0.20 mEq/L
same,"Plasma potassium, Δ Day7 vs baseline (Day −1)",healthy male volunteers [11]; LCI699 0.5 mg once daily,+0.25^‡ mEq/L
same,"Plasma potassium, Δ Day14 vs Day 7",healthy male volunteers [11]; LCI699 0.5 mg once daily,+0.05 mEq/L
same,"Plasma sodium, Δ Day2 vs baseline (Day −1)",healthy male volunteers [11]; LCI699 0.5 mg once daily,+0.23 mEq/L
same,"Plasma sodium, Δ Day7 vs baseline (Day −1)",healthy male volunteers [11]; LCI699 0.5 mg once daily,−1.71^‡ mEq/L
same,"Plasma sodium, Δ Day14 vs Day 7",healthy male volunteers [11]; LCI699 0.5 mg once daily,+0.41 mEq/L
same,"Urinary potassium, Δ Day 1 vs baseline (Day −1)",healthy male volunteers [11]; LCI699 0.5 mg once daily,+9.2 mEq/24 h
same,"Urinary potassium, Δ Day 7 vs baseline (Day −1)",healthy male volunteers [11]; LCI699 0.5 mg once daily,+12.8 mEq/24 h
same,"Urinary potassium, Δ Day 14 vs Day 7",healthy male volunteers [11]; LCI699 0.5 mg once daily,+20.2 mEq/24 h
same,"Urinary sodium, Δ Day 1 vs baseline (Day −1)",healthy male volunteers [11]; LCI699 0.5 mg once daily,+45.2^† mEq/24 h
same,"Urinary sodium, Δ Day 7 vs baseline (Day −1)",healthy male volunteers [11]; LCI699 0.5 mg once daily,+3.6 mEq/24 h
same,"Urinary sodium, Δ Day 14 vs Day 7",healthy male volunteers [11]; LCI699 0.5 mg once daily,−25.5 mEq/24 h
same,change in 24 h urinary aldosterone levels from baseline,"healthy male volunteers [11]; LCI699 0.5 mg, Day 1",–39%
same,reduction of 24 h urinary aldosterone,healthy male volunteers [11]; [22],39 ± 6%
same,reduction of plasma aldosterone,healthy male volunteers [11]; [22],49 ± 3%
same,change in pre-dose plasma ACTH from baseline,"healthy male volunteers [11]; LCI699 0.5 mg, Day 6",−14.5%
same,increase in PRA from baseline,"healthy male volunteers [11]; LCI699 0.5 mg, Day 7",106%
same,increase in PRA compared with baseline,"healthy male volunteers [11]; LCI699 0.5 mg, Day 14",130%
same,Mean pre-dose plasma aldosterone levels,"healthy male volunteers [11]; LCI699 1 mg and 3 mg once daily, Day 14",209 to 293 pg/mL
same,"Plasma potassium, Δ Day2 vs baseline (Day −1)",healthy male volunteers [11]; LCI699 1 mg once daily,+0.08 mEq/L
same,"Plasma potassium, Δ Day7 vs baseline (Day −1)",healthy male volunteers [11]; LCI699 1 mg once daily,+0.12* mEq/L
same,"Plasma potassium, Δ Day14 vs Day 7",healthy male volunteers [11]; LCI699 1 mg once daily,−0.06 mEq/L
same,"Plasma sodium, Δ Day2 vs baseline (Day −1)",healthy male volunteers [11]; LCI699 1 mg once daily,−0.59 mEq/L
same,"Plasma sodium, Δ Day7 vs baseline (Day −1)",healthy male volunteers [11]; LCI699 1 mg once daily,−0.11 mEq/L
same,"Plasma sodium, Δ Day14 vs Day 7",healthy male volunteers [11]; LCI699 1 mg once daily,−0.01 mEq/L
same,"Urinary potassium, Δ Day 1 vs baseline (Day −1)",healthy male volunteers [11]; LCI699 1 mg once daily,+9.7 mEq/24 h
same,"Urinary potassium, Δ Day 7 vs baseline (Day −1)",healthy male volunteers [11]; LCI699 1 mg once daily,+17.4* mEq/24 h
same,"Urinary potassium, Δ Day 14 vs Day 7",healthy male volunteers [11]; LCI699 1 mg once daily,+4.2 mEq/24 h
same,"Urinary sodium, Δ Day 1 vs baseline (Day −1)",healthy male volunteers [11]; LCI699 1 mg once daily,+76.3^‡ mEq/24 h
same,"Urinary sodium, Δ Day 7 vs baseline (Day −1)",healthy male volunteers [11]; LCI699 1 mg once daily,+44.0 mEq/24 h
same,"Urinary sodium, Δ Day 14 vs Day 7",healthy male volunteers [11]; LCI699 1 mg once daily,−3.6 mEq/24 h
same,change in 24 h urinary aldosterone levels from baseline,"healthy male volunteers [11]; LCI699 1 mg, Day 1",–39%
same,change in pre-dose plasma ACTH from baseline,"healthy male volunteers [11]; LCI699 1 mg, Day 6",−31.4%
same,change in 24 h urinary aldosterone levels from baseline,"healthy male volunteers [11]; LCI699 1 mg, Day 7",−12%
same,increase in PRA from baseline,"healthy male volunteers [11]; LCI699 1 mg, Day 7",277%
same,increase in PRA compared with baseline,"healthy male volunteers [11]; LCI699 1 mg, Day 14",327%
same,"Plasma sodium, Δ Day2 vs baseline (Day −1)",healthy male volunteers [11]; LCI699 3 mg once daily,−0.73* mEq/L
same,"Plasma sodium, Δ Day7 vs baseline (Day −1)",healthy male volunteers [11]; LCI699 3 mg once daily,−2.87^‡ mEq/L
same,"Plasma sodium, Δ Day14 vs Day 7",healthy male volunteers [11]; LCI699 3 mg once daily,−0.45 mEq/L
same,"Urinary potassium, Δ Day 1 vs baseline (Day −1)",healthy male volunteers [11]; LCI699 3 mg once daily,+2.9 mEq/24 h
same,"Urinary potassium, Δ Day 7 vs baseline (Day −1)",healthy male volunteers [11]; LCI699 3 mg once daily,+12.2 mEq/24 h
same,"Urinary sodium, Δ Day 1 vs baseline (Day −1)",healthy male volunteers [11]; LCI699 3 mg once daily,+64.0^‡ mEq/24 h
same,"Urinary sodium, Δ Day 7 vs baseline (Day −1)",healthy male volunteers [11]; LCI699 3 mg once daily,+22.2 mEq/24 h
same,"Urinary sodium, Δ Day 14 vs Day 7",healthy male volunteers [11]; LCI699 3 mg once daily,−17.2 mEq/24 h
same,change in 24 h urinary aldosterone levels from baseline,"healthy male volunteers [11]; LCI699 3 mg, Day 1",–66%
same,change in pre-dose plasma ACTH from baseline,"healthy male volunteers [11]; LCI699 3 mg, Day 6",−15.6%
same,change in 24 h urinary aldosterone levels from baseline,"healthy male volunteers [11]; LCI699 3 mg, Day 7",−44%
same,increase in PRA from baseline,"healthy male volunteers [11]; LCI699 3 mg, Day 7",377%
same,increase in trough 11-DOC levels from baseline,"healthy male volunteers [11]; LCI699 3 mg, Day 7",228%
same,increase in PRA compared with baseline,"healthy male volunteers [11]; LCI699 3 mg, Day 14",238%
same,increase in pre-dose ACTH levels compared with baseline,healthy male volunteers [11]; LCI699 10 mg,193%
same,increase in pre-dose plasma 11-deoxycortisol from baseline,"healthy male volunteers [11]; LCI699 10 mg, Day 6",508%
same,reduction in 24 h urinary cortisol,"healthy male volunteers [11]; LCI699 10 mg, Day 7, one subject (second subject no change)",> 70%
same,plasma aldosterone following the 10 mg dose,"healthy male volunteers [11]; LCI699 10 mg, data not shown",No further reduction
same,change in trough 11-DOC levels,"healthy male volunteers [11]; LCI699 0.5 or 1 mg, Day 7",no change
same,effect on plasma or 24 h urinary cortisol,"healthy male volunteers [11]; LCI699 0.5–3 mg, Day 1, 7 or 14",no significant effect
same,ED50,"[12]; po, read-out: ED50 for inhibition of ACTH-stimulated plasma aldosterone",0.013 mg/kg
same,EC50,[12]; read-out: EC50 for inhibition of ACTH-stimulated plasma aldosterone,< 1 nM
same,IC50,[13],410 ± 5 nM
same,effect on ACTH-stimulated cortisol,ACTH-stimulated cortisol; 3 mg/kg i.v.,reduced ACTH-stimulated cortisol
same,effect on ACTH-stimulated cortisol,ACTH-stimulated cortisol; i.v. 0.003–1 mg/kg,no effect
same,ED50,[14]; read-out: ED50 for inhibiting ACTH-stimulated aldosterone,1.1 mg/kg
same,ED50,[14]; read-out: ED50 for inhibiting ACTH-stimulated corticosterone,73 mg/kg
same,EC50,[14]; read-out: EC50 for inhibiting ACTH-stimulated aldosterone,771 nM
same,EC50,[14]; read-out: EC50 for inhibiting ACTH-stimulated corticosterone,36000 nM
same,plateau of maximal inhibition of plasma aldosterone,"healthy male volunteers [15]; at the 10 mg single dose, no further reduction up to 200 mg",approximately 80%
same,increase in 11-deoxycortisol,healthy male volunteers [15]; single dose 100 mg,942%
same,increase in 11-deoxycortisol,healthy male volunteers [15]; single dose 200 mg,584%
same,decrease in plasma cortisol,"healthy male volunteers [15]; single dose 200 mg, 24 h post-dose, P = 0.029 vs placebo",19%
same,effect on plasma cortisol,healthy male volunteers [15]; single doses 3–100 mg,did not significantly alter
same,reductions in 24-h urinary cortisol,"healthy male volunteers [15]; single doses of 30, 100 or 200 mg",34–42%
same,dose proportionality of pharmacokinetics,[16],dose-proportional
same,dose above which inhibition of stimulated plasma aldosterone shows an apparent plateau,[17]; oral,> 10 mg/kg
same,Maximal reduction in plasma aldosterone from baseline,[17]; [20],80%
same,oral bioavailability,[18]; 1 mg/kg oral dose,96%
same,half-life,[18],0.6 to 3.6 h
same,patients with urinary free cortisol below upper limit of normal,[19]; 70 days,11 patients
same,tolerability,[19],well tolerated
